Results from patent publication US9258995B2, “Organ cold storage composition and methods of use” (BOARD OF TRUSTEES OF THE UNIVERSITY OF ARKANSAS, priority 2009, dated 2016).

Tests used:
rat kidneys [1] = experiment: Nitrotyrosine immunohistochemistry during CS; conditions: 4 h CS, 100 μM
Description: All animals were treated according to the National Institutes of Health Guide for the Care and Use of Laboratory Animals and the University of Arkansas for Medical Sciences Institutional Animal Care and Use Committee guidelines. Male Fischer 344 inbred rats (Charles Rivers Laboratories, Inc., Wilmington, Mass.) weighing between 250 and 300 g were anesthetized with ethrane, followed by shaving and prepping with betadine. […] Bulldog clamps were placed on the aorta and vena cava (proximal and distal to the renal vessels) to prevent blood flow to the kidneys. A 22-gauge surgical needle was used to puncture the rat's aorta to flush the renal grafts with saline (10 ml per kidney) using a small catheter. Once the kidneys started to turn light brown (perfusion), another vent was formed in the vena cava to allow blood flow from the kidneys. […]
(§1) NRK cells (groups 1-4) were assessed for nitrotyrosine formation as previously described. […] Nitrotyrosine staining was evaluated and captured with equal exposure times using a Nikon Eclipse 800 microscope (40×oil). Images were quantified by averaging the mean intensity fluorescence of five random cells in three different fields using Nikon N is Elements software. Renal tissue sections were assessed for the presence of nitrotyrosine protein adducts by nitrotyrosine immunohistochemistry. […]

rat kidneys [2] = experiment: Periodic acid-Schiff morphological assessment of renal injury during CS; conditions: 4 h CS, 100 μM
Description: All animals were treated according to the National Institutes of Health Guide for the Care and Use of Laboratory Animals and the University of Arkansas for Medical Sciences Institutional Animal Care and Use Committee guidelines. Male Fischer 344 inbred rats (Charles Rivers Laboratories, Inc., Wilmington, Mass.) weighing between 250 and 300 g were anesthetized with ethrane, followed by shaving and prepping with betadine. […] Bulldog clamps were placed on the aorta and vena cava (proximal and distal to the renal vessels) to prevent blood flow to the kidneys. A 22-gauge surgical needle was used to puncture the rat's aorta to flush the renal grafts with saline (10 ml per kidney) using a small catheter. Once the kidneys started to turn light brown (perfusion), another vent was formed in the vena cava to allow blood flow from the kidneys. Once both kidneys were completely flushed, the right kidney was recovered and served as a control (group 1), and the left kidney was exposed to CS alone for 4 h at 4° C. […]
Renal sections were assessed for tissue injury using the periodic acid-Schiff reaction. […] Morphological evaluation of tubular dilation, brush border loss, and cellular debris/tubular cast formation were performed blindly with light microscopy and assessed semiquantitatively according to the following scoring system: 0, no changes; 1, mild changes; 2, moderate changes, and 3, severe changes.

NRK cells [3] = experiment: Nitrotyrosine immunocytochemistry, CS plus rewarming; assay type: cell-based, rat; conditions: 4-h CS plus overnight (18 h) RW, 1 μM added during CS
Description: Normal rat kidney proximal tubular cells (NRK-52E; American Type Culture Collection, Manassas, Va.) were maintained in six-well 100 or 150-mm, or 150-mm plates in a humidified incubator gassed with 5% CO2 and 95% air at 37° C. in DMEM (Invitrogen, Carlsbad, Calif.) containing 5% fetal calf serum (FCS). Cells were grown to 60% confluence and divided into four treatment groups: 1) untreated (Untx), 2) CS, 3) CS+MitoQ, and 4) CS+DecylTPP. Untreated cells remained at 37° C. in DMEM containing 5% FCS (group 1). CS was initiated by washing cells with cold PBS (Invitrogen) twice and storing them in UW/Viaspan solution alone (4 h at 4° C.) (group 2), CS+MitoQ (1 μM) (group 3), or CS+DecylTPP (1 μM) (group 4). In separate experiments, cells were exposed to CS plus RW by replacing UW solution alone or UW solution containing MitoQ or DecylTPP with DMEM containing 5% FCS overnight (18 h at 37° C.).
as §1

NRK cells [4] = experiment: Available nitric-oxide levels, CS NRK cell model; assay type: cell-based, rat; conditions: 4-h CS (data not shown)
Description: Nitric oxide is a free radical that is well known to interact with superoxide to form peroxynitrite. It is generated by nitric-oxide synthase (NOS) and is an important signaling molecule in many physiological processes. Few reports have evaluated the effect of cold ischemia alone on NOS protein levels or activity.

[5] = test system: porcine renal mitochondrial respiratory complex IV; experiment: Mitochondrial respiratory complex activity, porcine ex vivo renal model
Description: (§2) FIG. 15 depicts graphs showing activities or (A) porcine renal mitochondrial respiratory complex I, (B) activities or porcine renal mitochondrial respiratory complex II/III, and (C) activities or porcine renal mitochondrial respiratory complex IV, after MitoQ treatment. MitoQ ([…]) protected porcine complex II/III following 24 hr cold preservation. Values are expressed as mean SEM (n=4).
(§3) Mitochondrial respiratory complex activity was also evaluated in the porcine ex vivo renal model at 24-h and 48-h CS. […] Protection of Complex II/III by MitoQ (100 μM) was significant following 24-h cold preservation.

[6] = test system: porcine renal mitochondrial respiratory complex I; experiment: as above
Description: as §2, §3

[7] = patients with chronic hepatitis C virus infection, phase II clinical trials; cited from earlier work
[8] = two phase II clinical trials for Parkinson's disease and hepatitis C virus; cited from earlier work

Compound: COC1=C(OC)C(=O)C(CCCCCCCCCC[P+](c2ccccc2)(c2ccccc2)c2ccccc2)=C(C)C1=O [MitoQ, mitoquinone]
- nitrotyrosine formation (immunohistochemistry) (rat kidneys [1]): less nitrotyrosine formation
- renal histology / renal injury (periodic acid-Schiff staining) (rat kidneys [2]): improved renal histology significantly
- nitrotyrosine staining during CS.RW (NRK cells [3]): attenuated nitrotyrosine staining significantly
- available nitric-oxide levels (NRK cells [4]): no effect
- protection of Complex IV activity, 24-h versus 48-h CS [5]: at 24-h better than at 48-h
- protection of Complex I activity, 24-h versus 48-h CS [6]: at 24-h better than at 48-h
- liver damage [7]: reduce liver damage
- safety and tolerability [8]: safe and well tolerated
